The results in this text go back to patent US20210317140A1, “Heterocyclic Compounds and Methods of Use” (MEDIVATION TECHNOLOGIES, INC, priority 2013, published 2021).

One assay addresses T1, BTK (Homo sapiens, UniProt Q06187).
T1 construct: purchased Reaction Biology Corporation
Description: BTK kinase assay (HotSpot, 33P ATP). The class given is biochemical. Particulars: 10 μM ATP; for BTK @ 0.1 μM (% Inh): 0.1 μM compound; for BTK @ 1 μM (% Inh): 1 μM compound; for BTK @ 0.01 μM (% Inh): 0.01 μM compound. As to the method: (§1) Compounds of the invention were profiled in a 10 dose IC50 panel against BTK and PI3Kδ, both provided by Reaction Biology Corporation.
BTK assay: In vitro profiling protein kinases was performed using the “HotSpot” assay platform. Briefly, specific kinase/substrate pairs along with required cofactors were prepared in reaction buffer. Compounds were prepared as 10 mM stock solutions in DMSO. Compounds were delivered into the reaction, followed 15-20 minutes later by addition of a mixture of ATP (Sigma, St. Louis Mo.) and ^33P ATP (Perkin Elmer, Waltham Mass.) to a final concentration of 10 μM. […] IC50 values and curve fits were obtained using Prism (GraphPad Software). Buffer Conditions: 20 mM Hepes (pH 7.5), 10 mM MgCl2, 1 mM EGTA, 0.02% Brij35, 0.02 mg/mL BSA, 0.1 mM Na3VO4, 2 mM DTT, 1% DMSO.

The target in another assay is T2, PI3Kδ (Homo sapiens, UniProt O00329).
T2 construct: purchased Reaction Biology Corporation
Briefly: PI3Kδ kinase assay (HTRF, PIP3 detection). Particulars: 10 μM ATP; for PI3Kδ @ 0.1 μM (% Inh): 0.1 μM compound; for PI3Kδ @ 1 μM (% Inh): 1 μM compound; for PI3Kδ @ 0.01 μM (% Inh): 0.01 μM compound. It is filed as biochemical.
From the text: as §1
PI3Kδ assay: The PIP3 product is detected by displacement of biotin-PIP3 from an energy transfer complex consisting of Europium labeled anti-GST monoclonal antibody, a GST-tagged pleckstrin homology (PH) domain, biotinylated PIP3 and Streptavidin-Allophycocyanin (APC). […] The PIP3 product formed by PI 3-Kinase(h) activity displaces biotin-PIP3 from the complex resulting in a loss of energy transfer and thus a decrease in signal. This is a 3-step reaction: First, the kinase reaction with PIP2 substrate is carried out in the presence of ATP (10 μM), and the reaction is quenched with stop Solution, and then finally detect by adding Detection Mixture followed by incubation (10 min). Reaction procedure: 1) Prepare substrate in freshly prepared Reaction Buffer. 2) Deliver kinase into the substrate solution and gently mix. 3) Deliver compounds in 100% DMSO (1 μM) into the kinase reaction mixture by Acoustic technology (Echo550; nanoliter range), incubate for 10 min at RT. 4) Deliver ATP into the reaction mixture to initiate the reaction. 5) Incubate for 30 min at 30° C. 6) Quench the reaction with Stop Solution. 7) Add Detection Mixture, and incubate for overnight. […] The emission ratio is converted into μM PIP3 production based on PIP3 standard curves. The nonlinear regression to obtain the standard curve and IC50 values are performed using Graphpad Prism software. Assay Buffer: HEPES 50 mM (pH7.0), NaN3 0.02%, BSA 0.01%, Orthovanadate 0.1 mM, 1% DMSO. Detection buffer: HEPES 10 mM (pH7.0), BSA 0.02%, KF 0.16 M, EDTA 4 mM. Substrate: 10 μM PIP2 substrate (PI(4,5)P2).

Structures are written as SMILES.

T1 sequence (Q06187 whole entry): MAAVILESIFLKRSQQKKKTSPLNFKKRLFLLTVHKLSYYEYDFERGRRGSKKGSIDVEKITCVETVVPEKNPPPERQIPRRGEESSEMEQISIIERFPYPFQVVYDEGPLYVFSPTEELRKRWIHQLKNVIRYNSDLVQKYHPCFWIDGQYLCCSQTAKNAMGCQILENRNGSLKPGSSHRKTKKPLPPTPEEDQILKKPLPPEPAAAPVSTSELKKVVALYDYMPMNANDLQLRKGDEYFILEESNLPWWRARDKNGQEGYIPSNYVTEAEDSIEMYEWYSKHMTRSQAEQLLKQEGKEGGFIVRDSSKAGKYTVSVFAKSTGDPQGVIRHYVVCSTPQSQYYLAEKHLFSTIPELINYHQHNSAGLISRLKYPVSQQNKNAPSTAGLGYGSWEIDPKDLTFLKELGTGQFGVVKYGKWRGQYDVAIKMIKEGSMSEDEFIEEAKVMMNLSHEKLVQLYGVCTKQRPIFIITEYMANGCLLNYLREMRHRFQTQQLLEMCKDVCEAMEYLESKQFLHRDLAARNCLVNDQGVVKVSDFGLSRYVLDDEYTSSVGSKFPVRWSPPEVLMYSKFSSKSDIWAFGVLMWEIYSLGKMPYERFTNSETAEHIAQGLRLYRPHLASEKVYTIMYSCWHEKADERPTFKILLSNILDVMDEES
T2 sequence (O00329 whole entry): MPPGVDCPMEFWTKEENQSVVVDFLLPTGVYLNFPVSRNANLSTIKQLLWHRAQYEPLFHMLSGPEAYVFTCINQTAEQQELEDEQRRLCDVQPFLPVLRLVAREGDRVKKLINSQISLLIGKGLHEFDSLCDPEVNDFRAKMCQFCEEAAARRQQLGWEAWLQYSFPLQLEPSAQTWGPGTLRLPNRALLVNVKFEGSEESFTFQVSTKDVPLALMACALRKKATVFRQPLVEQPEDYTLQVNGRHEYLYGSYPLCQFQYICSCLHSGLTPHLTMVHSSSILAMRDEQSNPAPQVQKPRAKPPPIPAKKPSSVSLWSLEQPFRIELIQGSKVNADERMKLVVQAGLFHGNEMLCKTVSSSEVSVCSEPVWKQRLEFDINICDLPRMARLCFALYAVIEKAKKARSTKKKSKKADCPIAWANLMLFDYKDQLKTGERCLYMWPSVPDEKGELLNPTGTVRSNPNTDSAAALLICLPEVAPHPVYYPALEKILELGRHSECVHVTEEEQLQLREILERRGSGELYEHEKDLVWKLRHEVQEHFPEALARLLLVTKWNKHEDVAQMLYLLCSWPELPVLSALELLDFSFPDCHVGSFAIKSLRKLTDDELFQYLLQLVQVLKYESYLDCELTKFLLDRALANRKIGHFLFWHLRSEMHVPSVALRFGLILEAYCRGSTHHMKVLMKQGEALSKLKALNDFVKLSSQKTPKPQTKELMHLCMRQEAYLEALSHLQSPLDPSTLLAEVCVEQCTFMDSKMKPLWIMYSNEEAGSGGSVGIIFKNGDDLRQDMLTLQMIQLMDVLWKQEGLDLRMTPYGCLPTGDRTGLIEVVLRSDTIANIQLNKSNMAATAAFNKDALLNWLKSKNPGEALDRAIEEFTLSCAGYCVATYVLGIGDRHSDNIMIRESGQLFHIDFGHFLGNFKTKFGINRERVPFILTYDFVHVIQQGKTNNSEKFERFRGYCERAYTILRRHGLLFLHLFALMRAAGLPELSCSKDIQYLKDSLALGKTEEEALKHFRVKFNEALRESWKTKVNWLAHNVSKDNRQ
T2 sequence (P27986 whole entry partner): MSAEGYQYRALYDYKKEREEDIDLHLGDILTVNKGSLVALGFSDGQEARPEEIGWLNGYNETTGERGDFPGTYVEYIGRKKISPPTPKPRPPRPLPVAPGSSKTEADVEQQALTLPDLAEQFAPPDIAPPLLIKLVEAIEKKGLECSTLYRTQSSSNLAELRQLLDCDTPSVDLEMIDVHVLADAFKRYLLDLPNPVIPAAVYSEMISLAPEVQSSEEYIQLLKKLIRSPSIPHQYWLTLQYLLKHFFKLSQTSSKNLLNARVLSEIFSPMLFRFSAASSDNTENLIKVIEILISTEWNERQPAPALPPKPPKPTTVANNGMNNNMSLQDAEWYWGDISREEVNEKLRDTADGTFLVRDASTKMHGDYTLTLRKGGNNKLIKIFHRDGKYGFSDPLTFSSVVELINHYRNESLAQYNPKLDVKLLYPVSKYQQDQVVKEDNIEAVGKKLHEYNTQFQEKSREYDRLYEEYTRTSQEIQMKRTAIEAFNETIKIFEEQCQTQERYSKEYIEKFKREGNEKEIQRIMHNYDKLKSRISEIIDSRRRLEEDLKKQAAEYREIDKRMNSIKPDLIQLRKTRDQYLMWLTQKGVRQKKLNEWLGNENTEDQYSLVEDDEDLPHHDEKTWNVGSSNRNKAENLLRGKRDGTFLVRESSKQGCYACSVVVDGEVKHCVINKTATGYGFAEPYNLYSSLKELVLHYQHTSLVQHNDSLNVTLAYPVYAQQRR

For `CCOc1c(Cl)cc(-c2nn(C3Cc4ccccc4C3)c3ncnc(N)c23)cc1OC` [Compound No. 77, 3-(3-chloro-4-ethoxy-5-methoxyphenyl)-1-(2,3-dihydro-1H-inden-2-yl)-1H-pyrazolo[3,4-d]pyrimidin-4-amine], at BTK, the “BTK @ 0.1 μM (% Inh)” value is 24.85 % Inh and the “BTK @ 1 μM (% Inh)” value turned out to be 76.64 % Inh. For the same compound, at PI3Kδ, the “PI3Kδ @ 0.1 μM (% Inh)” value is on record as −1.66 % Inh and the “PI3Kδ @ 1 μM (% Inh)” value was found to be 16.5 % Inh.

For the compound `Nc1ncnc2c1c(-c1cccc3[nH]ccc13)nn2C1Cc2ccccc2C1` [Compound No. 78, 1-(2,3-dihydro-1H-inden-2-yl)-3-(1H-indol-4-yl)-1H-pyrazolo[3,4-d]pyrimidin-4-amine], at BTK, the “BTK @ 0.1 μM (% Inh)” value is 18.18 % Inh and the “BTK @ 1 μM (% Inh)” value amounted to 54.62 % Inh. At PI3Kδ, the “PI3Kδ @ 0.1 μM (% Inh)” value came to 4.96 % Inh and the “PI3Kδ @ 1 μM (% Inh)” value is recorded as 43.86 % Inh.

Consider `CCOc1cc(-c2nn(C3Cc4ccccc4C3)c3ncnc(N)c23)cc(Cl)c1OC(C)C` [Compound No. 79, 3-[3-chloro-5-ethoxy-4-(propan-2-yloxy)phenyl]-1-(2,3-dihydro-1H-inden-2-yl)-1H-pyrazolo[3,4-d]pyrimidin-4-amine], for which, at BTK, the “BTK @ 0.1 μM (% Inh)” value was found to be 7.61 % Inh and the “BTK @ 1 μM (% Inh)” value is listed as 9.02 % Inh. In addition, at PI3Kδ, the “PI3Kδ @ 0.1 μM (% Inh)” value came out at 6.45 % Inh and the “PI3Kδ @ 1 μM (% Inh)” value was 12.1 % Inh.

As to `COc1cc(-c2nn(C3Cc4ccccc4C3)c3ncnc(N)c23)cc(Cl)c1OC` [Compound No. 80, 3-(3-chloro-4,5-dimethoxyphenyl)-1-(2,3-dihydro-1H-inden-2-yl)-1H-pyrazolo[3,4-d]pyrimidin-4-amine], at BTK, the “BTK @ 0.1 μM (% Inh)” value is given as 45.74 % Inh and the “BTK @ 1 μM (% Inh)” value was 68.21 % Inh. In addition, at PI3Kδ, the “PI3Kδ @ 0.1 μM (% Inh)” value was determined as 5.1 % Inh and the “PI3Kδ @ 1 μM (% Inh)” value was 29.99 % Inh.

Take `Cc1nc2ccc(-c3nn(C4Cc5ccccc5C4)c4ncnc(N)c34)cc2[nH]1` [Compound No. 82, 1-(2,3-dihydro-1H-inden-2-yl)-3-(2-methyl-1H-1,3-benzodiazol-6-yl)-1H-pyrazolo[3,4-d]pyrimidin-4-amine]: at BTK, the “BTK @ 0.1 μM (% Inh)” value came out at 11.64 % Inh and the “BTK @ 1 μM (% Inh)” value was determined as 30.18 % Inh. In addition, at PI3Kδ, the “PI3Kδ @ 0.1 μM (% Inh)” value was found to be 41.76 % Inh and the “PI3Kδ @ 1 μM (% Inh)” value stood at 82.95 % Inh.

In the case of `COc1ccc(-c2nn(C3Cc4ccccc4C3)c3ncnc(N)c23)c(OC)c1OC` [Compound No. 83, 1-(2,3-dihydro-1H-inden-2-yl)-3-(2,3,4-trimethoxyphenyl)-1H-pyrazolo[3,4-d]pyrimidin-4-amine], at BTK, the “BTK @ 0.1 μM (% Inh)” value came to 10.79 % Inh and the “BTK @ 1 μM (% Inh)” value came to 18.4 % Inh. Besides, on PI3Kδ, the “PI3Kδ @ 0.1 μM (% Inh)” value is −5.17 % Inh and the “PI3Kδ @ 1 μM (% Inh)” value is 13.54 % Inh.

With `Nc1ncnc2c1c(-c1cc(F)c(F)c(F)c1)nn2C1Cc2ccccc2C1` [Compound No. 86, 1-(2,3-dihydro-1H-inden-2-yl)-3-(3,4,5-trifluorophenyl)-1H-pyrazolo[3,4-d]pyrimidin-4-amine], at BTK, the “BTK @ 0.01 μM (% Inh)” value was 8.08 % Inh and the “BTK @ 0.1 μM (% Inh)” value is 21.34 % Inh. In addition, at PI3Kδ, the “PI3Kδ @ 0.01 μM (% Inh)” value was 17.21 % Inh and the “PI3Kδ @ 0.1 μM (% Inh)” value came out at 20.84 % Inh.

As for `Nc1cc(-c2nn(C3Cc4ccccc4C3)c3ncnc(N)c23)ccc1F` [Compound No. 87, 3-(3-amino-4-fluorophenyl)-1-(2,3-dihydro-1H-inden-2-yl)-1H-pyrazolo[3,4-d]pyrimidin-4-amine], on BTK, the “BTK @ 0.01 μM (% Inh)” value worked out at 34.28 % Inh and the “BTK @ 0.1 μM (% Inh)” value is recorded as 78.95 % Inh. At PI3Kδ, the “PI3Kδ @ 0.01 μM (% Inh)” value stood at 13.47 % Inh and the “PI3Kδ @ 0.1 μM (% Inh)” value is reported as 8.16 % Inh.

For `Nc1ncnc2c1c(-c1cccc(F)c1)nn2C1Cc2ccccc2C1` [Compound No. 88, 1-(2,3-dihydro-1H-inden-2-yl)-3-(3-fluorophenyl)-1H-pyrazolo[3,4-d]pyrimidin-4-amine], on BTK, the “BTK @ 0.01 μM (% Inh)” value is 7.67 % Inh and the “BTK @ 0.1 μM (% Inh)” value stood at 17.55 % Inh. Besides, at PI3Kδ, the “PI3Kδ @ 0.01 μM (% Inh)” value amounted to 18.98 % Inh and the “PI3Kδ @ 0.1 μM (% Inh)” value came to 15.89 % Inh.

Regarding `Nc1ncnc2c1c(-c1ccc(F)c(F)c1)nn2C1Cc2ccccc2C1` [Compound No. 89, 3-(3,4-difluorophenyl)-1-(2,3-dihydro-1H-inden-2-yl)-1H-pyrazolo[3,4-d]pyrimidin-4-amine], on BTK, the “BTK @ 0.01 μM (% Inh)” value is on record as 8.84 % Inh and the “BTK @ 0.1 μM (% Inh)” value was 30.58 % Inh. Moreover, at PI3Kδ, the “PI3Kδ @ 0.01 μM (% Inh)” value worked out at 0.76 % Inh and the “PI3Kδ @ 0.1 μM (% Inh)” value was determined as 17.95 % Inh.

As for `CCCCOc1cc(-c2nn(C3Cc4ccccc4C3)c3ncnc(N)c23)ccc1OC` [Compound No. 90, 3-(3-butoxy-4-methoxyphenyl)-1-(2,3-dihydro-1H-inden-2-yl)-1H-pyrazolo[3,4-d]pyrimidin-4-amine], at BTK, the “BTK @ 0.01 μM (% Inh)” value turned out to be 7.39 % Inh and the “BTK @ 0.1 μM (% Inh)” value came to 6.79 % Inh. Moreover, on PI3Kδ, the “PI3Kδ @ 0.01 μM (% Inh)” value is reported as 9.23 % Inh and the “PI3Kδ @ 0.1 μM (% Inh)” value is on record as 44.39 % Inh.

On to `COc1cc(-c2nn(C3Cc4ccccc4C3)c3ncnc(N)c23)cc(F)c1F` [Compound No. 91, 3-(3,4-difluoro-5-methoxyphenyl)-1-(2,3-dihydro-1H-inden-2-yl)-1H-pyrazolo[3,4-d]pyrimidin-4-amine], for which, at BTK, the “BTK @ 0.01 μM (% Inh)” value was 8 % Inh and the “BTK @ 0.1 μM (% Inh)” value came out at 33.72 % Inh. Also, on PI3Kδ, the “PI3Kδ @ 0.01 μM (% Inh)” value is −1.19 % Inh and the “PI3Kδ @ 0.1 μM (% Inh)” value is given as 19.59 % Inh.

For the compound `COc1cc(-c2nn(C3Cc4ccccc4C3)c3ncnc(N)c23)cc(C(F)(F)F)c1F` [Compound No. 92, 1-(2,3-dihydro-1H-inden-2-yl)-3-[4-fluoro-3-methoxy-5-(trifluoromethyl)phenyl]-1H-pyrazolo[3,4-d]pyrimidin-4-amine], at BTK, the “BTK @ 0.01 μM (% Inh)” value came out at 1.24 % Inh and the “BTK @ 0.1 μM (% Inh)” value was determined as 3.3 % Inh. Further, at PI3Kδ, the “PI3Kδ @ 0.01 μM (% Inh)” value is 11.71 % Inh and the “PI3Kδ @ 0.1 μM (% Inh)” value is given as 9.31 % Inh.

For `N#Cc1ccc(-c2nn(C3Cc4ccccc4C3)c3ncnc(N)c23)cc1O` [Compound No. 94, 4-[4-amino-1-(2,3-dihydro-1H-inden-2-yl)-1H-pyrazolo[3,4-d]pyrimidin-3-yl]-2-hydroxybenzonitrile], at BTK, the “BTK @ 0.01 μM (% Inh)” value is 8.16 % Inh and the “BTK @ 0.1 μM (% Inh)” value is listed as 22.48 % Inh. In addition, at PI3Kδ, the “PI3Kδ @ 0.01 μM (% Inh)” value was 29.77 % Inh and the “PI3Kδ @ 0.1 μM (% Inh)” value worked out at 71.5 % Inh.

As to `COc1c(Cl)ccc(-c2nn(C3Cc4ccccc4C3)c3ncnc(N)c23)c1Cl` [Compound No. 95, 3-(2,4-dichloro-3-methoxyphenyl)-1-(2,3-dihydro-1H-inden-2-yl)-1H-pyrazolo[3,4-d]pyrimidin-4-amine], on BTK, the “BTK @ 0.01 μM (% Inh)” value stood at 7 % Inh and the “BTK @ 0.1 μM (% Inh)” value is on record as 11.01 % Inh. At PI3Kδ, the “PI3Kδ @ 0.01 μM (% Inh)” value is 3.09 % Inh and the “PI3Kδ @ 0.1 μM (% Inh)” value amounted to 25.54 % Inh.

Turning to `Nc1ccc(-c2nn(C3Cc4ccccc4C3)c3ncnc(N)c23)cn1` [Compound No. 96, 5-[4-amino-1-(2,3-dihydro-1H-inden-2-yl)-1H-pyrazolo[3,4-d]pyrimidin-3-yl]pyridin-2-amine], on BTK, the “BTK @ 0.01 μM (% Inh)” value is given as 7.68 % Inh and the “BTK @ 0.1 μM (% Inh)” value worked out at 12.19 % Inh. In addition, on PI3Kδ, the “PI3Kδ @ 0.01 μM (% Inh)” value came to 32.92 % Inh and the “PI3Kδ @ 0.1 μM (% Inh)” value came out at 40.18 % Inh.
